# From patent publication US20250298040A1, “MEASUREMENT OF REACTIVE OXYGEN SPECIES TO ASSESS RED BLOOD CELL QUALITY” (UNIVERSITY OF MARYLAND, BALTIMORE, priority 2022, published 2025)
# Columns and labels:
# human RBCs = test: CMH oxidation in human RBCs stored under normoxic vs hypoxic conditions, EPR; type: cell-based; conditions: entire duration of storage, p<9.31×10^−4
# Procedure: (§1) Measurement of CMH oxidation by EPR spectroscopy. All samples for EPR measurement contained 1 mM CMH. Other reagents, when used, were at the following concentrations: xanthine oxidase (XO), 0.03 U/mL; superoxide dismutase (SOD), 5 μM; hypoxanthine (HX), 0.5 mM; hydrogen peroxide (H2O2), 1 mM. Cell-free measurements were made in phosphate-buffered saline (PBS) containing 1 mM diethylenetriaminepentaacetic acid (DTPA). For measurements on RBCs, each sample was made by mixing 2 μL of 50 mM CMH·HCl stock solution with 98 μL of RBC suspension (˜40% hematocrit) in Citrate Phosphate Dextrose Adenine (CPDA-1, Sigma-Aldrich, St. Louis, MO). Time zero (t=0) is the time at which CMH is mixed into the sample. The amplitude (h) of the center peak of the CM· nitroxide EPR spectrum was converted into concentration (C in μM) by using a calibration equation, which for this example was C=(h−0.03308)/0.06461, determined using a series of standard samples.
# Distinguishing between normoxic and hypoxic storage conditions. Hydroxylamine molecular probe, e.g., CMH, measurements can be used to distinguish human RBCs stored under normoxic and hypoxic conditions, as shown in FIG. 3B. Duplicate samples of human RBCs were stored 1) under normoxic conditions (equilibrated with air), and 2) under hypoxic conditions (equilibrated with low-oxygen atmosphere) and tested periodically with CMH. […]
# RBCs [1] = test: Scanning electron microscopy of RBCs exposed to CMH; type: cell-based, human; conditions: CMH 0.1, 0.3, 1.0, 3.0 and 10 mM, 10 minutes, ambient temperature, vs vehicle
# Procedure: (§2) Donor blood. Blood was obtained from healthy volunteers under informed consent. All human subject research was approved by the University of Maryland, Baltimore Institutional Review Board under Protocol #-HP-00092436.
# (§3) CMH Incubation. Whole blood was centrifuged at 900 g/2500 rpm for 10 minutes to separate RBC from plasma/buffy coat. Plasma and buffy coat were removed, and RBCs were washed five times with 0.5 ml volumes of isotonic phosphate buffered saline containing 5 mM glucose. After each wash, supernatant and residual buffy coat was removed. After the 5th wash the RBC pellet was mixed with the preservative solution, CPDA-1 in an 85:15 ratio (150 μL CPDA-1 for a total volume of 1 mL). This step was performed to approximate the preparation of packed RBCs for refrigerator storage. CMH was diluted with double deionized H2O (ddH2O) to make stock solutions ranging from 400-4 mM. 10 μL of stock CMH solution or ddH2O was added to 390 μL of RBC/CPDA-1 suspensions, mixed gently but thoroughly and incubated at ambient temperature for 10 minutes. The concentrations tested were as follows: 0.1, 0.3, 1.0, 3.0 and 10 mM. […] After 10 minutes of incubation, complete blood count, shear stress deformability, oxygen equilibrium (oxygen saturation and desaturation) was measured as 3 technical replicates for all samples. […]
# RBCs [2] = test: Complete blood count RBC parameters following CMH exposure; type: cell-based, human; conditions: CMH 0.1, 0.3, 1.0, 3.0 and 10 mM, 10 minutes, ambient temperature, vs vehicle ddH2O
# Procedure: as §2
# CMH Incubation. Whole blood was centrifuged at 900 g/2500 rpm for 10 minutes to separate RBC from plasma/buffy coat. Plasma and buffy coat were removed, and RBCs were washed five times with 0.5 ml volumes of isotonic phosphate buffered saline containing 5 mM glucose. After each wash, supernatant and residual buffy coat was removed. After the 5th wash the RBC pellet was mixed with the preservative solution, CPDA-1 in an 85:15 ratio (150 μL CPDA-1 for a total volume of 1 mL). This step was performed to approximate the preparation of packed RBCs for refrigerator storage. CMH was diluted with double deionized H2O (ddH2O) to make stock solutions ranging from 400-4 mM. 10 μL of stock CMH solution or ddH2O was added to 390 μL of RBC/CPDA-1 suspensions, mixed gently but thoroughly and incubated at ambient temperature for 10 minutes. The concentrations tested were as follows: 0.1, 0.3, 1.0, 3.0 and 10 mM. This step was performed to approximate the preparation time needed for assaying superoxide in donor RBCs at the point of collection or in a blood bank setting. After 10 minutes of incubation, complete blood count, shear stress deformability, oxygen equilibrium (oxygen saturation and desaturation) was measured as 3 technical replicates for all samples. Fixation of RBCs was performed for scanning electron microscopy.
# Total Blood cell count. Total blood cell count was quantified using ABX Pentra 60 C+ Hematology analyzer (HORIBA Instruments Inc., Kyoto, Japan). Briefly, 60 μL of whole blood was used for the analyses.
# RBCs [3] = test: Shear stress ektacytometry of RBCs exposed to CMH; type: cell-based, human; conditions: CMH 0.1, 0.3, 1.0, 3.0 and 10 mM; shear stress 5.33 Pa and 30 Pa; vs vehicle, P>0.05
# Procedure: as §2
# as §3, with “mM.” for “mM. 10 μL of stock CMH solution or ddH2O was added to 390 μL of RBC/CPDA-1 suspensions, mixed gently but thoroughly and incubated at ambient temperature for 10 minutes. The concentrations tested were as follows: 0.1, 0.3, 1.0, 3.0 and 10 mM.”
# Measurements of RBC deformability. RBC deformability was measured by ektacytometry, using the laser-assisted optical rotational cell analyzer (LORCA MaxSis, Mechatronics, Netherlands) at 37° C. […] RBC deformability was measured by applying 9 different shear stresses ([…]). […]
# [4] = tested on: RBCs from healthy donors and donors with sickle-cell disease; test: CMH oxidation in RBCs from healthy donors vs donors with sickle-cell disease, EPR; type: cell-based, human; conditions: SCD n=19, Healthy n=6, p=1.26×10^−6
# Procedure: as §1
# Distinguishing between RBCs from healthy subjects and patients with sickle-cell disease. Hydroxylamine molecular probe, e.g., CMH, measurements can be used to differentiate between RBCs from healthy donors and donors with sickle-cell disease, as shown in FIG. 4. RBCs from screened healthy donors (Healthy, n=6) and donors that have sickle-cell disease (SCD, n=19) were tested with CMH. […] Error bars represent s.e.m.
# [5] = CMH oxidation by O2^·− from xanthine oxidase/hypoxanthine, cell-free EPR; conditions: 1 mM CMH
# Procedure: as §1
# (§4) Hydroxylamine molecular probe oxidation by O2^·−. The enzyme xanthine oxidase (XO) oxidizes its substrate hypoxanthine and generates O2^·− in the process. […] The first and last EPR spectrum of a representative data set are plotted as the inset at the top left, showing growth of the EPR spectrum as reaction proceeds. Superoxide dismutase (SOD) destroys O2^·− in a rapid enzymatic process, thus preventing it from reacting with CMH. […]
# RBCs [6] = test: Oxygen equilibrium (P50) of RBCs exposed to CMH; type: cell-based, human; conditions: CMH up to 10 mM (10-fold the intended assay concentration)
# Procedure: as §2
# as §3, with “mM.” for “mM. 10 μL of stock CMH solution or ddH2O was added to 390 μL of RBC/CPDA-1 suspensions, mixed gently but thoroughly and incubated at ambient temperature for 10 minutes. The concentrations tested were as follows: 0.1, 0.3, 1.0, 3.0 and 10 mM.”
# Measurement of Oxygen equilibrium (p50). […] The P50 value was determined using an automated blood oxygen analyzer (Hemox, Model B, TCS Scientific) following the manufacturer's protocol. […]
# RBC = conditions: cited from earlier work
# [7] = tested on: RBCs from FVB and B6 mice; test: CMH oxidation in refrigerator-stored murine RBCs (FVB vs B6), EPR; type: cell-based, mouse
# Procedure: as §1
# Murine blood collection and storage. Mouse blood collections were approved by the University of Maryland, Baltimore Institutional Animal Care and Use Committee (IACUC) (protocol #0520008). Processed RBCs from two different mouse strains (C57BL/6J or B6 for short, Jackson Laboratory, Barr Harbor, ME and FVB, Charles Rivers, Worcester, MA) were evaluated in this study. Whole blood (approximately 800-1000 μL per mouse) was collected by cardiac puncture using a 21 G×1 inch needle and 1 mL syringe containing Citrate Phosphate Dextrose solution (CPD) from n=15 B6 and n=15 FVB mice. Blood was pooled within the strains in 15 mL falcon tubes and centrifuged at 750×g for 5 minutes. The plasma and buffy coat were removed. Each aliquot was washed 3 times in 5 mL of phosphate-buffered saline containing 10 mM glucose (PBS-G) with gentle swirling for 3 minutes followed by centrifugation at 750×g for 5 minutes. After the final wash, PBS-G was removed and CPDA-1 (840 μL, 14% of the total volume) was added to RBCs (approximately 6 mL of packed RBCs). Hematocrits were approximately 70% across storage tubes. Finally, preparations were split into 12 equal volumes (500 μL) and stored in 1.7 mL Eppendorf tubes (n=3 per mouse strain per time point) in a refrigerator at 4-6° C. Measurements were made on day 1 (immediately after processing) and then on days 2, 4 and 8 after processing such that measurements were made from independent tubes and not a single pooled blood tube.
# Data analysis and presentation. Least-squares curve fitting and statistical analysis were performed using OriginPro software (OriginLab Corp., Northampton, MA). […] Difference between the two strains on the same day was assessed by t-test; within-strain differences over multiple days of storage were assessed through ANOVA.
# [8] = CMH incubation with hydrogen peroxide, cell-free EPR
# Procedure: as §1, §4
RBC membrane/morphology changes by SEM (RBCs [1]),RBC elongation index (RBCs [3]),SMILES,"rate of CMH oxidation, normoxic vs hypoxic stored RBCs (human RBCs)",% hematocrit (RBCs [2]),Mean corpuscular hemoglobin (RBCs [2]),Mean corpuscular volume (RBCs [2]),RBC count (RBCs [2]),mean corpuscular hemoglobin concentration (RBCs [2]),total hemoglobin (RBCs [2]),"rate of CMH oxidation, SCD RBCs vs Healthy RBCs [4]","reaction of CMH with O2^·− (CM· formation quantified by EPR) ([5]; XO 0.03 U/mL, hypoxanthine 0.5 mM, PBS with 1 mM DTPA)",production of CM· in presence of SOD ([5]; XO + hypoxanthine + SOD 5 μM),oxygen equilibrium curves / P50 (hemoglobin allostery) (RBCs [6]),membrane permeance (RBC),"rate of CM· generation in B6 RBCs ([7]; B6 mouse RBCs, day 2 of storage, 1 mM CMH, slightly above buffer control CPDA-1)","rate of CM· generation in FVB RBCs ([7]; FVB mouse RBCs vs B6, day 2 of storage, 1 mM CMH)","mean rate of CMH to CM· oxidation, FVB versus B6 murine RBCs ([7]; days 1, 2, 4 and 8 of storage)","generation of CM· on incubation with H2O2 ([8]; 1 mM CMH, 1 mM H2O2, PBS with 1 mM DTPA)",selectivity of CMH for O2^·− over H2O2 ([8]; 1 mM H2O2),"mean [CM·] higher in RBCs from FVB mice than B6 ([7]; at the time of CMH addition, each day of measurement)"
no remarkable changes,do not change the elongation indices,"COC(=O)C1CC(C)(C)N(O)C1(C)C (stereo not drawn) [CMH, 1-hydroxy-3-methoxycarbonyl-2,2,5,5-tetramethylpyrrolidine]",much higher rate,no CMH concentration dependent differences,no CMH concentration dependent differences,no CMH concentration dependent differences,no CMH concentration dependent differences,no CMH concentration dependent differences,no CMH concentration dependent differences,much higher rates,converts it to CM·,negligible production of CM·,does not impart aberrant hemoglobin allostery,membrane-permeant,low rate,much higher rate,3 fold,negligible generation of CM·,high selectivity,
,,COC(=O)C1CC(C)(C)N([O])C1(C)C (stereo not drawn) [CM·],,,,,,,,,,,,membrane-permeant,,,,,,~9 µM
